Laboratory results reported in patent US12083101B2, “Biaryl derivatives as YAP/TAZ-TEAD protein-protein interaction inhibitors” (Novartis AG, priority 2020, dated 2024).
Read-outs that look alike come from different tables or passages of the source.

Experiments:
MKN-45/Ubc-luc cells [1] = test: Proliferation assay (resazurin), MKN-45; format: cell-based; conditions: 72 hours incubation
MKN-45/Ubc-luc cells [2] = test: Reporter gene specificity control (Ubc-luciferase), MKN-45
Procedure: As a specificity control, MKN-45 cells were stably transduced with a Ubc-Luc reporter construct, in which constitutive expression of firefly luciferase is driven by the promoter of the ubiquitin C housekeeping gene.
Stock solutions of compounds were prepared at a concentration of 10 mM in DMSO and stored at 4° C. Where necessary to afford a full dose-response curve, the stock solutions were pre-diluted in DMSO to 1'000-fold the desired reduced start concentration. On the day after cell seeding, eleven 2-fold serial dilutions of each compound were dispensed directly into the cell assay plates using a HP 300D non-contact Digital Dispenser (TECAN, Mannedorf, Switzerland). The final concentration of DMSO was normalized to 0.1% in all wells.
The ability of compounds to inhibit YAP-dependent transcription was assessed in NCI-H2052 Tet-On shYAP_2371 pLenti6 MCAT_Luc cells, while specificity (lack of unspecific inhibition of luciferase expression of activity) was assessed in MKN-45/Ubc-luc cells. […] Following incubation for 24 hours at 37° C., compound-mediated modulation of reporter-gene activity was quantified 5 min after addition of 20 μl BrightGlo (Promega, Cat #E2620), by measuring luminescence intensity on a multi-mode plate-reader (TECAN, Männedorf, Switzerland, Integration time 100 ms). For data analysis, the assay background value determined in wells containing medium, but no cells, was subtracted from all data points. Dose-dependent compound effects were expressed as % of vehicle-treated control (luminescence signal produced by cells receiving DMSO only) and IC50s calculated using a four-parametric fit model.

[3] = tested on: NCI-H2052 Tet-On shYAP_2371 pLenti6 MCAT_Luc cells; test: Proliferation assay (resazurin), NCI-H2052; format: cell-based; conditions: 72 hours incubation
Summary of the method: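 The NCI-H2052 line carries a Tet-inducible shRNA against the YAP1 3′UTR and an MCAT luciferase reporter. The day after seeding, it received eleven 2-fold compound dilutions at 0.1% DMSO, and viability was read by resazurin fluorescence.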

[4] = tested on: NCI-H2052 Tet-On shYAP_2371 pLenti6 MCAT_Luc cells (YAP-dependent transcription); test: YAP reporter gene activity assay (MCAT-luciferase), NCI-H2052; format: cell-based; conditions: 24 hours incubation, BrightGlo luminescence
Summary of the method: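 Luminescence was read 5 min after BrightGlo, following 24 h at 37 °C of compound exposure (eleven 2-fold dilutions, DMSO normalized to 0.1%). Cells were NCI-H2052 with a YAP-responsive MCAT-luciferase and a Tet-inducible shRNA against YAP1 3′UTR. Cell-free background was removed, values were normalized to vehicle, and IC50 was fitted with four parameters.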

[5] = molecular target: Avi-humanTEAD4 217-434 / Cy5 labeled humanYAP 60-100 (Homo sapiens (Human), UniProt Q15561); test: TR-FRET YAP-TEAD4 in-vitro biochemical assay; format: binding; conditions: 1 nM Avi-humanTEAD4 217-434, 20 nM Cy5-humanYAP 60-100, 1 h room temperature
Sequence of Avi-humanTEAD4 217-434 / Cy5 labeled humanYAP 60-100 (Q15561 217-434): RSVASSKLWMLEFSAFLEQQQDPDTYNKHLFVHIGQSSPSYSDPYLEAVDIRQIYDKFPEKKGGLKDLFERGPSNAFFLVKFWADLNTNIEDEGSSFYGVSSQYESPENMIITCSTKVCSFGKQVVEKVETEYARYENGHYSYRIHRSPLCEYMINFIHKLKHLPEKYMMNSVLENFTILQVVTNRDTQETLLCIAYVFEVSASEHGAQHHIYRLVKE

[6] = read-out: Reporter gene assay MKN-45 IC50, MKN-45/Ubc-luc cells (YAP deleted, specificity control), 24 hours incubation
[7] = Homo sapiens, MKN-45, 24 h, read-out: Reporter gene assay MKN-45 IC50 [μM], MKN-45/Ubc-luc cells (YAP deleted, specificity control), 24 hours incubation

Row | SMILES | GI50 (MKN-45/Ubc-luc cells [1]) [nM] | IC50 (MKN-45/Ubc-luc cells [2]; [6]) [µM] | GI50 [3] [nM] | IC50 [4] [nM] | IC50 [5] [nM] | GI50 (MKN-45/Ubc-luc cells [1]; Homo sapiens) [nM] | IC50 (MKN-45/Ubc-luc cells [2]; [7]) [µM] | GI50 ([3]; Homo sapiens, NCI-H2052, 72 h) [nM] | IC50 ([4]; Homo sapiens, NCI-H2052, 24 h) [nM]
1 | COc1ccc(C(N)=O)c(-c2c(Cl)ccc3c2C[C@@](CN[C@H]2CC[C@@H](O)CC2)(c2ccccc2)O3)c1F (relative stereo) [Example 27b, 2-((2S,4S)-5-chloro-2-(((cis-4-hydroxycyclohexyl)amino)methyl)-2-phenyl-2,3-dihydrobenzofuran-4-yl)-3-fluoro-4-methoxybenzamide] | > 10000 | > 10 | 182 | 78 | 1 | – | – | – | –
2 | COc1ccc(C(N)=O)c(-c2c(Cl)ccc3c2C[C@@](CN[C@H]2CC[C@H](C(=O)O)CC2)(c2ccccc2)O3)c1F (relative stereo) [Example 28a, (Trans)-4-((((2S,4S)-4-(6-carbamoyl-2-fluoro-3-methoxyphenyl)-5-chloro-2-phenyl-2,3-dihydrobenzofuran-2-yl)methyl)amino)cyclohexanecarboxylic acid] | > 10000 | > 10 | 224 | 86 | 3 | – | – | – | –
3 | COc1ccc(C(N)=O)c(-c2c(Cl)ccc3c2C[C@@](CN[C@H]2CC[C@@H](C(=O)O)CC2)(c2ccccc2)O3)c1F (relative stereo) [Example 28b, (cis)-4-((((2S,4S)-4-(6-carbamoyl-2-fluoro-3-methoxyphenyl)-5-chloro-2-phenyl-2,3-dihydrobenzofuran-2-yl)methyl)amino)cyclohexanecarboxylic acid] | > 10000 | > 10 | 148 | 55 | 3 | – | – | – | –
4 | C[C@H]1c2c(ccc(Cl)c2-c2c(C(N)=O)ccc(OC(F)F)c2F)O[C@]1(CN[C@H]1CC[C@@](C)(O)CC1)c1ccccc1 (relative stereo) [Example 104a, 2-((2S,3S,4S)-5-chloro-2-((((cis)-4-hydroxy-4-methylcyclohexyl)amino)methyl)-3-methyl-2-phenyl-2,3-dihydrobenzofuran-4-yl)-4-(difluoromethoxy)-3-fluorobenzamide] | 6200 | > 10 | 144 | 35 | 3 | – | – | – | –
5 | NC(=O)c1ccc(OCCO)c(F)c1-c1c(Cl)c(F)cc2c1C[C@@](CN[C@H]1C[C@@H](C(F)F)C1)(c1ccccc1)O2 (relative stereo) [Example 140a, 2-((2S,4S)-5-Chloro-2-((((cis)-3-(difluoromethyl)cyclobutyl)amino)methyl)-6-fluoro-2-phenyl-2,3-dihydrobenzofuran-4-yl)-3-fluoro-4-(2-hydroxyethoxy)benzamide] | > 10000 | > 10 | 28 | 23 | 4 | – | – | – | –
6 | NC(=O)c1ccc(OCCO)c(F)c1-c1c(Cl)c(F)cc2c1C[C@@](CN[C@H]1C[C@H](C(F)F)C1)(c1ccccc1)O2 (relative stereo) [Example 140b, 2-((2S,4S)-5-chloro-2-((((trans)-3-(difluoromethyl)cyclobutyl)amino)methyl)-6-fluoro-2-phenyl-2,3-dihydrobenzofuran-4-yl)-3-fluoro-4-(2-hydroxyethoxy)benzamide] | > 10000 | > 10 | 29 | 28 | 6 | – | – | – | –
7 | COc1ccc(C(N)=O)c(-c2c(Cl)ccc3c2C[C@@](CN)(c2ccccc2)O3)c1F (single isomer, unassigned) [Example 5a] | > 10000 | > 20 | 280 | 130 | 5 | – | – | – | –
8 | COc1ccc(C(N)=O)c(-c2c(Cl)ccc3c2C[C@@](CN)(c2ccccc2)O3)c1F (single isomer, unassigned) [Example 5b] | > 10000 | > 10 | > 10000 | > 10000 | 23300 | – | – | – | –
9 | CC(=O)NC1CCC(NC[C@@]2(c3ccccc3)Cc3c(cc(F)c(Cl)c3-c3c(C(N)=O)ccc(OC(F)F)c3F)O2)CC1 (single isomer, unassigned) [Example 56b] | > 10000 | 7.6 | 372 | 194 | 11 | – | – | – | –
10 | CN(C)C(=O)C1CCC(NC[C@@]2(c3ccccc3)Cc3c(cc(F)c(Cl)c3-c3c(C(N)=O)ccc(OC(F)F)c3F)O2)CC1 (single isomer, unassigned) [Example 58a] | – | – | – | – | 4 | > 10000 | > 10 | 125 | 67
11 | CC(C)(O)C1CC(NC[C@@]2(c3ccccc3)Cc3c(cc(F)c(Cl)c3-c3c(C(N)=O)ccc(OC(F)F)c3F)O2)C1 (single isomer, unassigned) [Example 62b] | > 10000 | > 10 | 89 | 54 | 6 | – | – | – | –
12 | NC(=O)c1ccc(OC(F)F)c(F)c1-c1c(Cl)c(F)cc2c1C[C@](c1ccccc1)(C1CC(O)CN1)O2 (single isomer, unassigned) [Example 158] | – | – | – | – | 5 | > 10000 | > 10 | 181 | 93
13 | CS(=O)(=O)[C@H]1CC[C@@H](NC[C@@]2(c3ccccc3)Cc3c(cc(F)c(Cl)c3-c3c(C(N)=O)ccc(OC(F)F)c3F)O2)CC1 [Example 54a, 2-((2S,4S)-5-Chloro-6-fluoro-2-((((cis)-4-(methylsulfonyl)cyclohexyl)amino)methyl)-2-phenyl-2,3-dihydrobenzofuran-4-yl)-4-(difluoromethoxy)-3-fluorobenzamide] | – | – | – | – | 75 | > 10000 | > 10 | 670 | 147
14 | CS(=O)(=O)[C@H]1CC[C@H](NC[C@@]2(c3ccccc3)Cc3c(cc(F)c(Cl)c3-c3c(C(N)=O)ccc(OC(F)F)c3F)O2)CC1 [Example 54b, 2-((2S,4S)-5-chloro-6-fluoro-2-((((trans)-4-(methylsulfonyl)cyclohexyl)amino)methyl)-2-phenyl-2,3-dihydrobenzofuran-4-yl)-4-(difluoromethoxy)-3-fluorobenzamide] | – | – | – | – | 22 | > 10000 | > 10 | 258 | 118

Further lines, results first:

Row | GI50 (MKN-45/Ubc-luc cells [1]) [nM] | IC50 (MKN-45/Ubc-luc cells [2]; [6]) [µM] | GI50 [3] [nM] | IC50 [4] [nM] | IC50 [5] [nM] | GI50 (MKN-45/Ubc-luc cells [1]; Homo sapiens) [nM] | IC50 (MKN-45/Ubc-luc cells [2]; [7]) [µM] | GI50 ([3]; Homo sapiens, NCI-H2052, 72 h) [nM] | IC50 ([4]; Homo sapiens, NCI-H2052, 24 h) [nM] | SMILES
15 | > 10000 | > 10 | 68 | 45 | 2 | – | – | – | – | NC(=O)c1ccc(OC(F)F)c(F)c1-c1c(Cl)ccc2c1[C@H](O)[C@@](CN[C@H]1CC[C@H](O)CC1)(c1ccccc1)O2 (relative stereo) [Example 94a, 2-((2S,3S,4S)-5-chloro-3-hydroxy-2-((((trans)-4-hydroxycyclohexyl)amino)methyl)-2-phenyl-2,3-dihydrobenzofuran-4-yl)-4-(difluoromethoxy)-3-fluorobenzamide]
16 | > 10000 | > 10 | 101 | 83 | 3 | – | – | – | – | NC(=O)c1ccc(OC(F)F)c(F)c1-c1c(Cl)ccc2c1[C@H](O)[C@@](CN[C@H]1CC[C@@H](O)CC1)(c1ccccc1)O2 (relative stereo) [Example 94b, 2-((2S,3S,4S)-5-chloro-3-hydroxy-2-((((cis)-4-hydroxycyclohexyl)amino)methyl)-2-phenyl-2,3-dihydrobenzofuran-4-yl)-4-(difluoromethoxy)-3-fluorobenzamide]
17 | > 10000 | > 10 | 55 | 22 | 2 | – | – | – | – | C[C@H]1c2c(ccc(Cl)c2-c2c(C(N)=O)ccc(OC(F)F)c2F)O[C@]1(CN[C@H]1CC[C@](C)(O)CC1)c1ccccc1 (relative stereo) [Example 104b, 2-((2S,3S,4S)-5-chloro-2-((((trans)-4-hydroxy-4-methylcyclohexyl)amino)methyl)-3-methyl-2-phenyl-2,3-dihydrobenzofuran-4-yl)-4-(difluoromethoxy)-3-fluorobenzamide]
18 | – | – | – | 70 | 2 | > 10000 | > 10 | 195 | – | CC(=O)NC1CCC(NC[C@@]2(c3ccccc3)Cc3c(cc(F)c(Cl)c3-c3c(C(N)=O)ccc(OC(F)F)c3F)O2)CC1 (single isomer, unassigned) [Example 56a]
19 | > 10000 | > 10 | 167 | 104 | 6 | – | – | – | – | CN(C)C(=O)C1CCC(NC[C@@]2(c3ccccc3)Cc3c(cc(F)c(Cl)c3-c3c(C(N)=O)ccc(OC(F)F)c3F)O2)CC1 (single isomer, unassigned) [Example 58b]
20 | – | – | 240 | 203 | 16 | > 10000 | > 10 | – | – | CC(C)(O)C1CC(NC[C@@]2(c3ccccc3)Cc3c(cc(F)c(Cl)c3-c3c(C(N)=O)ccc(OC(F)F)c3F)O2)C1 (single isomer, unassigned) [Example 62a]
21 | – | – | – | – | 1520 | > 10000 | > 10 | 1760 | 1000 | Fc1cc2c(c(-c3ccccc3)c1Cl)C[C@](c1ccccc1)(C1COCCN1)O2 (single isomer, unassigned) [Example 162]
